According to patent EP3556748A1, “HYDROXYPHENYL-TRIAZINE UV ABSORBERS” (BASF SE, priority 2018, dated 2019):

Test: Solubility testing in cosmetic solvents / emollients (clear solution)
Assay type: physicochemical
Conditions: 25°C
Description: The UV absorber mixture is suspended in 1200mg solvent in a glass container (sonication bath, vortex shaker). A magnetic stirring bar is added. The container is closed and stirred over night at room temperature (20-35°C).
Specification: clear solution
The solubility of Tinosorb S was determined as described in SOFW-Journal, 139, 7-2013, page 7-14.

CCCCC(CC)COc1ccc(-c2nc(-c3ccc(OC)cc3)nc(-c3ccc(OCC(CC)CCCC)cc3O)n2)c(O)c1 (centres unmarked) [Tinosorb S, Bis-Ethylhexyloxyphenol Methoxyphenyl Triazine]
Solubility (Cetiol AB (C12-15 Alkyl Benzoate)): 10% w/w | Solubility (Cetiol B (Dibutyl Adipate)): 12% w/w | Solubility (Cetiol CC (Dicaprylyl Carbonate)): 9% w/w | Solubility (Cetiol Ultimate (Undecane and Tridecane)): 1% w/w | Solubility (Dub DBS (Dibutyl Sebacate)): 9% w/w | Solubility (Finsolv EB: Ethylhexyl Benzoate): 17% w/w | Solubility (Myritol 318 (Caprylic/Capric Triglyceride)): 5% w/w | Solubility (Myritol 331 (Cocoglycerides)): 5% w/w
